Experimental data as given in patent US11472798B2 (Mission Therapeutics Limited, priority 2014, dated 2022).
pIC50: −log10 of the molar value.

Target: T1, UCHL1 (Homo sapiens, UniProt P09936)
T1 construct: made in house; host or cells: HEK293T
T1 sequence (P09936 1-223): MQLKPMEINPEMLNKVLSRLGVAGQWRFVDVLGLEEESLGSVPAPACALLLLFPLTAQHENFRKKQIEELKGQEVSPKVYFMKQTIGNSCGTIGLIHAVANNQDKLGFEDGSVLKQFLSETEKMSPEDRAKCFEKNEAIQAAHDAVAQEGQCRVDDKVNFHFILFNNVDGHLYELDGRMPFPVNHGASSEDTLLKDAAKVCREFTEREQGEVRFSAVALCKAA
Assay: UCHL1 biochemical IC50 assay (fluorescence polarisation)
Details: 30 min enzyme/compound pre-incubation at room temp, read after 2 hr incubation, read-out: Activity range (UCHL1 biochemical IC50 assay)
How it was run: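 FLAG-UCHL1 purified from transfected HEK293T cells was preincubated 30 min at room temperature with compound (8 points, 100–0.03 μM final) in Tris pH 7.5 buffer with Tween 20, BSA and beta-mercaptoethanol. Reaction started with 50 nM TAMRA-peptide–ubiquitin isopeptide substrate; fluorescence polarisation (ex 540/em 590 nm) read at once and after 2 h.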

CC1CC(C(=O)Nc2ncc(N3CCCCC3)s2)CN1C#N (stereo not shown) [Example 105, 1-cyano-5-methyl-N-(5-(piperidin-1-yl)thiazol-2-yl)pyrrolidine-3-carboxamide]
pIC50: 5.00 to 6.00

N#CN1CC[C@H](C(=O)Nc2cccc(N3CCCC3)n2)C1 [Example 106, (S)-1-cyano-N-(6-(pyrrolidin-1-yl)pyridin-2-yl)pyrrolidine-3-carboxamide]
pIC50: 4.52 to 5.00

N#CN1CC[C@H](C(=O)Nc2cc(N3CCCC3)ccn2)C1 [Example 107, (S)-1-cyano-N-(4-(pyrrolidin-1-yl)pyridin-2-yl)pyrrolidine-3-carboxamide]
pIC50: 5.00 to 6.00

N#CN1CC[C@H](C(=O)Nc2cnc(N3CCCC3)cn2)C1 [Example 108, (S)-1-cyano-N-(5-(pyrrolidin-1-yl)pyrazin-2-yl)pyrrolidine-3-carboxamide]
pIC50: 5.00 to 6.00

N#CN1CCC(C(=O)Nc2ncc(-c3ccccc3N)s2)C1 (stereo not shown) [Example 109, N-(5-(2-aminophenyl)thiazol-2-yl)-1-cyanopyrrolidine-3-carboxamide]
pIC50: 5.00 to 6.00

N#CN1CCC(C(=O)Nc2ncc(-c3cccc(N)c3)s2)C1 (stereo not shown) [Example 110, N-(5-(3-aminophenyl)thiazol-2-yl)-1-cyanopyrrolidine-3-carboxamide]
pIC50: 5.00 to 6.00

N#CN1CCC(C(=O)Nc2ncc(-c3ccc(N)cc3)s2)C1 (stereo not shown) [Example 111, N-(5-(4-aminophenyl)thiazol-2-yl)-1-cyanopyrrolidine-3-carboxamide]
pIC50: > 6.00

N#CN1CCC(C(=O)Nc2ncc(-c3cccnc3)s2)C1 (stereo not shown) [Example 112, 1-cyano-N-(5-(pyridin-3-yl)thiazol-2-yl)pyrrolidine-3-carboxamide]
pIC50: > 6.00

N#CN1CCC(C(=O)Nc2ncc(/C=C/C3CC3)s2)C1 (stereo not shown) [Example 113, (E)-1-cyano-N-(5-(2-cyclopropylvinyl)thiazol-2-yl)pyrrolidine-3-carboxamide]
pIC50: > 6.00

CC(=O)Nc1ccc(-c2cnc(NC(=O)C3CCN(C#N)C3)s2)cc1 (stereo not shown) [Example 114, N-(5-(4-acetamidophenyl)thiazol-2-yl)-1-cyanopyrrolidine-3-carboxamide]
pIC50: > 6.00

CC(=O)Nc1ccccc1-c1cnc(NC(=O)C2CCN(C#N)C2)s1 (stereo not shown) [Example 115, N-(5-(2-acetamiclophenyl)thiazol-2-yl)-1-cyanopyrrolidine-3-carboxamide]
pIC50: 5.00 to 6.00

CS(=O)(=O)Nc1cccc(-c2cnc(NC(=O)C3CCN(C#N)C3)s2)c1 (stereo not shown) [Example 116, 1-cyano-N-(5-(3-(methyl-sulfonamido)phenyl)thiazol-2-yl)pyrrolidine-3-carboxamide]
pIC50: > 6.00

N#Cc1cccc(-c2cnc(NC(=O)[C@H]3CCN(C#N)C3)s2)c1 [Example 117, (S)-1-cyano-N-(5-(3-cyanophenyl)thiazol-2-yl)pyrrolidine-3-carboxamide]
pIC50: > 6.00

N#Cc1ccc(-c2cnc(NC(=O)[C@H]3CCN(C#N)C3)s2)cc1 [Example 118, (S)-1-cyano-N-(5-(4-cyanophenyl)thiazol-2-yl)pyrrolidine-3-carboxamide]
pIC50: > 6.00

Cc1noc(C)c1-c1ccc2sc(NC(=O)C3CCN(C#N)C3)nc2c1 (stereo not shown) [Example 119, 1-cyano-N-(5-(3,5-dimethylisoxazol-4-yl)benzo[d]thiazol-2-yl)pyrrolidine-3-carboxamide]
pIC50: 5.00 to 6.00

Cc1noc(C)c1-c1ccc2nc(NC(=O)[C@H]3CCN(C#N)C3)sc2c1 [Example 120, (S)-1-cyano-N-(6-(3,5-dimethylisoxazol-4-yl)benzo[d]thiazol-2-yl)pyrrolidine-3-carboxamide]
pIC50: > 6.00

COc1ccc(-c2ccc3nc(NC(=O)[C@H]4CCN(C#N)C4)sc3c2)cc1 [Example 121, (S)-1-cyano-N-(6-(4-methoxyphenyl)benzo[d]thiazol-2-yl)pyrrolidine-3-carboxamide]
pIC50: 5.00 to 6.00

N#CN1CC[C@H](C(=O)Nc2nc3ccc(-c4ccccc4)cc3s2)C1 [Example 122, (S)-1-cyano-N-(6-phenylbenzo[d]thiazol-2-yl)pyrrolidine-3-carboxamide]
pIC50: 5.00 to 6.00

Cn1nccc1-c1ccc2nc(NC(=O)[C@H]3CCN(C#N)C3)sc2c1 [Example 123, (S)-1-cyano-N-(6-(1-methyl-1H-pyrazol-5-yl)benzo[d]thiazol-2-yl)pyrrolidine-3-carboxamide]
pIC50: > 6.00

Cn1cc(-c2ccc3nc(NC(=O)[C@H]4CCN(C#N)C4)sc3c2)cn1 [Example 124, (S)-1-cyano-N-(6-(1-methyl-1H-pyrazol-4-yl)benzo[d]thiazol-2-yl)pyrrolidine-3-carboxamide]
pIC50: > 6.00

Cc1n[nH]c(C)c1-c1ccc2nc(NC(=O)[C@H]3CCN(C#N)C3)sc2c1 [Example 125, (S)-1-cyano-N-(6-(3,5-dimethyl-1H-pyrazol-4-yl)benzo[d]thiazol-1-2-yl)pyrrolidine-3-carboxamide]
pIC50: > 6.00

Cc1oncc1-c1ccc2nc(NC(=O)[C@H]3CCN(C#N)C3)sc2c1 [Example 126, (S)-1-cyano-N-(6-(5-methylisoxazol-4-yl)benzo[d]thiazol-2-yl)pyrrolidine-3-carboxamide]
pIC50: > 6.00

Cc1noc(C)c1-c1ccn2cc(NC(=O)[C@H]3CCN(C#N)C3)nc2c1 [Example 127, (S)-1-cyano-N-(7-(3,5-dimethylisoxazol-4-yl)imidazo[1,2-a]pyridin-2-yl)pyrrolidine-3-carboxamide]
pIC50: > 6.00

Cc1noc(C)c1-c1ccc2nc(NC(=O)[C@H]3CCN(C#N)C3)cn2c1 [Example 128, (S)-1-cyano-N-(6-(3,5-dimethylisoxazol-4-yl)imidazo[1,2-a]pyridin-2-yl)pyrrolidine-3-carboxamide]
pIC50: > 6.00

N#CN1CC[C@H](C(=O)Nc2cn3cc(C4CC4)ccc3n2)C1 [Example 129, (S)-1-cyano-N-(6-cyclopropylimidazo[1,2-a]pyridin-2-yl)pyrrolidine-3-carboxamide]
pIC50: > 6.00

N#CN1CCC(C(=O)Nc2nc3ccc(C4CC4)cc3s2)C1 (stereo not shown) [Example 130, 1-cyan-N-(6-cyclopropylbenzo[d]thiazol-2-yl)pyrrolidine-3-carboxamide]
pIC50: > 6.00

COc1cc(-c2ccc3nc(NC(=O)[C@H]4CCN(C#N)C4)cn3c2)c(OC)nn1 [Example 131, (S)-1-cyano-N-(6-(3,6-dimethoxypyridazin-4-yl)imidazo[1,2-a]pyridin-2-yl)pyrrolidine-3-carboxamide]
pIC50: > 6.00

COc1cc(-c2ccc3nc(NC(=O)[C@H]4CCN(C#N)C4)sc3c2)c(OC)nn1 [Example 132, (S)-1-cyano-N-(6-(3,6-dimethoxypyridazin-4-yl)benzo[d]thiazol-2-yl)pyrrolidine-3-carboxamide]
pIC50: > 6.00

Cc1noc(C)c1-c1ccc2nc(NC(=O)[C@H]3CCN(C#N)[C@H]3C)sc2c1 [Example 133, (2S,3S)-1-cyano-N-(6-(3,5-dimethylisoxazol-4-yl)benzo[d]thiazol-2-yl)-2-methyl-pyrrolidine-3-carboxamide]
pIC50: > 6.00

Cc1ccc(-c2ccc(NC(=O)C3CCN(C#N)C3)nc2)cc1 (stereo not shown) [Example 134, 1-cyano-N-(5-(p-tolyl)pyridin-2-yl)pyrrolidine-3-carboxamide]
pIC50: 5.00 to 6.00

Cc1cccc(-c2ccc(NC(=O)C3CCN(C#N)C3)nc2)c1 (stereo not shown) [Example 135, 1-cyano-N-(5-(m-tolyl)pyridin-2-yl)pyrrolidine-3-carboxamide]
pIC50: 5.00 to 6.00

Cc1ccccc1-c1ccc(NC(=O)C2CCN(C#N)C2)nc1 (stereo not shown) [Example 136, 1-cyano-N-(5-(o-tolyl)pyridin-2-yl)pyrrolidine-3-carboxamide]
pIC50: 5.00 to 6.00

Cc1noc(C)c1-c1ccc2nc(NC(=O)[C@H]3CCN(C#N)C3)cn2c1C [Example 137, (S)-1-cyano-N-(6-(3,5-dimethylisoxazol-4-yl)-5-methylimidazo[1,2-a]pyridin-2-yl)pyrrolidine-3-carboxamide]
pIC50: > 6.00

Cc1noc(C)c1-c1ccc2nc(NC(=O)[C@H]3CCN(C#N)C3)sc2c1C [Example 138, (S)-1-cyano-N-(6-(3,5-dimethylisoxazol-4-yl)-7-methylbenzo[d]thiazol-2-yl)pyrrolidine-3-carboxamide]
pIC50: > 6.00

Cc1c(-c2cnn(C)c2)ccc2nc(NC(=O)[C@H]3CCN(C#N)C3)sc12 [Example 139, (S)-1-cyano-N-(7-methyl-6-(1-methyl-1H-pyrazol-4-yl)benzo[d]thiazol-2-yl)pyrrolidine-3-carboxamide]
pIC50: > 6.00

N#CN1CCC(C(=O)Nc2ncc(CN3CCOCC3)s2)C1 (stereo not shown) [Example 140, 1-cyano-N-(5-(morpholinomethyl)thiazol-2-yl)pyrrolidine-3-carboxamide]
pIC50: > 6.00

N#CN1CCC(C(=O)Nc2ncc(CN3CCCC3)s2)C1 (stereo not shown) [Example 141, 1-cyano-N-(5-(pyrrolidin-1-ylmethyl)thiazol-2-yl)pyrrolidine-3-carboxamide]
pIC50: 5.00 to 6.00

CC1CN(Cc2cnc(NC(=O)[C@H]3CCN(C#N)C3)s2)CC(C)O1 (stereo partly drawn) [Example 142, (3S)-1-cyano-N-(5-((2,6-dimethylmorpholino)methyl)thiazol-2-yl)pyrrolidine-3-carboxamide]
pIC50: 5.00 to 6.00

COC[C@H]1CCCN1Cc1cnc(NC(=O)[C@H]2CCN(C#N)C2)s1 [Example 143, (S)-1-cyano-N-(5-(((R)-2-(methoxymethyl)pyrrolidin-1-yl)methyl)thiazol-2-yl)pyrrolidine-3-carboxamide]
pIC50: 5.00 to 6.00

COC[C@@H]1CCCN1Cc1cnc(NC(=O)[C@H]2CCN(C#N)C2)s1 [Example 144, (S)-1-cyano-N-(5-(((S)-2-(methoxymethyl)pyrrolidin-1-yl)methyl)thiazol-2-yl)pyrrolidine-3-carboxamide]
pIC50: 5.00 to 6.00
